Measurements reported in patent US20200268768A1, “CENICRIVIROC COMBINATION THERAPY FOR THE TREATMENT OF FIBROSIS” (Tobira Therapeutics, Inc., priority 2015, published 2020).
Where “and” joins values, the source holds several entries; their conditions need not be identical. Equal entries are not always repeated.

Test system: STAM mouse model of Non-alcoholic Steatohepatitis
Test: STAM mouse model of NASH, anti-NASH/fibrosis effects at week 9
Type: in vivo, mice
Parameters: key to Hepatocyte ballooning score 0, number of mice / Hepatocyte ballooning score 1, number of mice: 0: None; 1: Few balloon cells; 2: Many cells/prominent ballooning; TNF-a mRNA expression level / MCP-1 mRNA expression level / Collagen Type 1 mRNA expression level / TIMP-1 mRNA expression level: scale not given here
Details: for Collagen Type 1 mRNA expression level / MCP-1 mRNA expression level / TIMP-1 mRNA expression level / TNF-a mRNA expression level: liver, quantitative RT-PCR
Method: NASH was induced in male mice by a single injection of 200 μg streptozotocin 2 days after birth (causing impaired glucose control), followed by a high fat diet from 4 weeks of age. […] Animals were sacrificed at 9 weeks of age, and biochemical, gene expression, and histologic evaluations of the liver were conducted. This in vivo efficacy study was performed to examine the effects of Cenicriviroc in the STAM™ mouse model of Non-alcoholic Steatohepatitis. […] [table]

[1] = CVC-high 100 mg/kg/day oral, mean ± SD
[2] = CVC-high 100 mg/kg/day oral, mean ± SD, listed as Cenicriviroc
[3] = CVC-low 20 mg/kg/day oral, mean ± SD
[4] = CVC-low 20 mg/kg/day oral, mean ± SD, listed as Cenicriviroc

## CCCCOCCOc1ccc(-c2ccc3c(c2)C=C(C(=O)Nc2ccc([S@@+]([O-])Cc4cncn4CCC)cc2)CCCN3CC(C)C)cc1 [CVC, (S)-8-[4-(2-Butoxyethoxy)phenyl]-1-isobutyl-N-(4-{[(1-propyl-1H-imidazol-5-yl)methyl]sulfinyl}phenyl)-1,2,3,4-tetrahydro-1-benzazocine-5-carboxamide]
CVC 20 and 100 mg/kg/day, real-time RT-PCR
  Decrease of collagen type 1 mRNA in whole liver lysates: 27-37%
[1]
  Collagen Type 1 mRNA expression level: 0.73±0.04
  MCP-1 mRNA expression level: 1.00±0.53
  TIMP-1 mRNA expression level: 0.80±0.20
  TNF-a mRNA expression level: 1.09±0.23
  Body weight: 18.7 ± 0.9 g
  F4/80-positive area (inflammation area): 4.96±0.60%
  F4/80 and CD206-positive cells: 33.1±3.0%
  F4/80 and CDE 16/32-positive cells: 41.5±8.2%
  Liver hydroxyproline: 0.62±0.09 ug/mg total protein
  Liver triglyceride: 51.7±14.1 mg/g liver
  Liver weight: 1307 ± 119 mg
  Liver-to-body weight ratio: 7.0±0.8%
  M1/M2 ratio: 125.1±21.9%
  NAFLD Activity Score (NAS): 3.7±0.8
  Oil red-positive area (fat deposition area): 7.23±3.59%
  Plasma ALT: 51±13 U/L and 52±13 U/L
  Plasma MCP-1: 91 ± 14 pg/mL
  TUNEL-positive cells: 39.0±5.3%
  Whole blood glucose: 585 ± 91 mg/dL
[2]
  Collagen Type 1 mRNA expression level: 0.73 ± 0.04
  MCP-1 mRNA expression level: 1.00 ± 0.53
  TIMP-1 mRNA expression level: 0.80 ± 0.20
  TNF-a mRNA expression level: 1.09 ± 0.23
  Body weight: 18.7 ± 0.9 g
  F4/80-positive area (inflammation area): 4.96 ± 0.60%
  F4/80 and CD206-positive cells: 33.1 ± 3.0%
  F4/80 and CDE 16/32-positive cells: 41.5 ± 8.2%
  Liver hydroxyproline: 0.62 ± 0.09 ug/mg total protein
  Liver triglyceride: 51.7 ± 14.1 mg/g liver
  Liver weight: 1307 ± 119 mg
  Liver-to-body weight ratio: 7.0 ± 0.8%
  M1/M2 ratio: 125.1 ± 21.9%
  NAFLD Activity Score (NAS): 3.7 ± 0.8
  Oil red-positive area (fat deposition area): 7.23 ± 3.59%
  Plasma ALT: 52 ± 13 U/L
  Plasma MCP-1: 91 ± 14 pg/mL
  TUNEL-positive cells: 39.0 ± 5.3%
  Whole blood glucose: 585 ± 91 mg/dL
CVC-high 100 mg/kg/day oral, perivascular space included, mean ± SD, listed as Cenicriviroc
  Sirius red-positive area (fibrosis area): 0.64 ± 0.19%
CVC-high 100 mg/kg/day oral, perivascular space subtracted, mean ± SD, listed as Cenicriviroc
  Modified Sirius red-positive rea: 0.20 ± 0.06%
CVC-high 100 mg/kg/day, Sirius red, individual mice 301-306, listed as Cenicriviroc
  Modified positive area, per mouse: 0.18% and 0.20% and 0.12% and 0.26% and 0.17% and 0.27%
CVC-high 100 mg/kg/day, Sirius red, individual mice 301-306, photos 1-5, listed as Cenicriviroc
  Modified positive area, per photo: 0.26% and 0.06% and 0.10% and 0.41% and 0.09% (2×) and 0.23% (2×) and 0.17% (2×) and 0.28% (2×) and 0.22% (2×) and 0.08% (3×) and 0.05% and 0.32% and 0.07% (3×) and 0.16% and 0.20% (2×) and 0.68% and 0.27% and 0.12% and 0.11% and 0.67%
CVC-high 100 mg/kg/day, n=6
  Hepatocyte ballooning score 0, number of mice: 1
  Hepatocyte ballooning score 1, number of mice: 2
  Hepatocyte ballooning score 2, number of mice: 3
  Lobular inflammation score 1, number of mice: 3 (>4 foci/200x)
  Lobular inflammation score 2, number of mice: 3 (>4 foci/200x)
  Steatosis score 0, number of mice: 1 (5-33%)
  Steatosis score 1, number of mice: 5
[3]
  Collagen Type 1 mRNA expression level: 0.63±0.10
  MCP-1 mRNA expression level: 1.05±0.50
  TIMP-1 mRNA expression level: 0.75±0.32
  TNF-a mRNA expression level: 1.16±0.39
  Body weight: 19.5 ± 2.0 g
  F4/80-positive area (inflammation area): 4.77±1.02%
  F4/80 and CD206-positive cells: 34.7±6.3%
  F4/80 and CDE 16/32-positive cells: 38.7±7.6%
  Liver hydroxyproline: 0.63±0.05 ug/mg total protein
  Liver triglyceride: 48.5±16.1 mg/g liver
  Liver weight: 1334 ± 99 mg
[4]
  Collagen Type 1 mRNA expression level: 0.63 ± 0.10
  MCP-1 mRNA expression level: 1.05 ± 0.50
  TIMP-1 mRNA expression level: 0.75 ± 0.32
  TNF-a mRNA expression level: 1.16 ± 0.39
